Measured values taken from patent publication US4416871A, “Inhibition by peptides of tolerance to and physical dependence on morphine” (The United States of America as represented by the …, priority 1982, dated 1983).
Entries after “also recorded” stand apart in the source; their conditions may differ. Non-standard residues stand in square brackets, D forms with d. Residues, ends and D or L forms follow the SMILES beside them. No end group written: not given here. *: point of attachment. pGlu = O=C1CC[C@@H](C(=O)O)N1; Cbz = O=C(OCc1ccccc1)*

How the values were obtained:
[1] = literature, Life Sci., 19, 1331-1340; cited from earlier work
[2] = system: morphine-dependent mice; assay: Naloxone-precipitated withdrawal: body temperature and withdrawal signs; assay type: in vivo; conditions: for Withdrawal, % of control (jumping, shakes, diarrhea) / Δt, °C. (difference in body temperature just prior to naloxone and 30 min. thereafter): Table II, peptide 50 μg per mouse, naloxone 0.1 mg/kg; for Δt, °C. (difference in body temperature just prior to naloxone and 30 min. thereafter): mean ± SD; for Withdrawal, % of control / Δt, °C. / lowest dose still effective in blocking physical dependence on morphine: Table III; for Withdrawal, % of control / Δt, °C.: dose 50 μg; for lowest dose still effective in blocking physical dependence on morphine: dose-response experiments; for ability to block development of physical dependence on morphine: naloxone-precipitated withdrawal, Tables II and III
Procedure: The mice were randomly divided into two groups. One received SC injections of water (vehicle) while the other received the peptide under investigation (50 μg/mouse on day one). Two hours later the mice were further subdivided and each subgroup was implanted with placebo or morphine pellets. The injections of vehicle and peptide were repeated 24 and 48 hours after the first injection in their respective groups. Morphine pellets containing 75 mg of morphine free base were implanted subcutaneously (SC) between 10-11 A.M. and were removed 3 days later at the same time. The control animals were implanted with placebo pellets. Body temperature and weight were measured daily at 11 A.M. Temperature was measured using a lubricated rectal probe inserted 2.5 cm into the rectum and measured with a telethermometer (Model 43TA Yellow Springs Instrument Co., Yellow Springs, Ohio).
To determine the effects of peptide treatment on the development of physical dependence, the abstinence syndrome was precipitated using the morphine antagonist naloxone (Endo Laboratories Inc., N.Y.) at the appropriate dose (0.1, 0.25, or 0.50 mg/kg) injected intraperitoneally (IP) one hour following removal of morphine and placebo pellets. Pellet removal was performed 24 hours after the last peptide injection. These mice were monitored for changes in body temperature (see above) and body weight at 15 min. intervals for one hour after the naloxone injection. Effects of removing the pellets (withdrawing morphine) were also assessed by utilizing body temperature and weight as physical dependence parameters; however, these measurements were made at 2 hour intervals for 10 hours after the removal of the pellets. Placebo implanted mice were treated in the same manner as the morphine pellet implanted mice.

[3] = system: morphine-dependent mice; assay: as above; assay type: in vivo; conditions: Table III

Compound | Withdrawal, % of control (jumping, shakes, diarrhea) [2] [%] | Δt, °C. (difference in body temperature just prior to naloxone and 30 min. thereafter) [2] | also measured
8-arginine vasotocin | – | – | relative potency in facilitating development of physical dependence on and tolerance to morphine [1]: more effective than 8-arginine vasopressin
CC(C)C[C@@H]1NC(=O)[C@H](C)NC1=O [Cyclo(Leu--Ala)] | 100 | -1.80 ± 0.96 °C | –
CC(C)C[C@@H]1NC(=O)CNC1=O [Cyclo(Leu--Gly), cyclo(leucyl-glycine)] | 21 | -0.02 ± 0.83 °C | Withdrawal, % of control ([3]; dose 0.05 μg): 20%; Δt, °C. ([3]; dose 0.05 μg): +0.27 ± 0.70 °C; Withdrawal, % of control ([3]; dose 0.5 μg): 0%; Δt, °C. ([3]; dose 0.5 μg): +0.30 ± 0.29 °C; Withdrawal, % of control ([3]; dose 5 μg): 0%; Δt, °C. ([3]; dose 5 μg): +0.47 ± 0.32 °C; Withdrawal, % of control [2]: 18%; Δt, °C. [2]: -0.19 ± 0.58 °C; lowest dose still effective in blocking physical dependence on morphine [2]: ≤ 0.05 μg per mouse; ability to block development of physical dependence on morphine [2]: showed significant activity; also recorded: most potent peptides tested; relative potency in facilitating development of physical dependence on and tolerance to morphine [1]: as effective as oxytocin
CC(C)C[C@H]1NC(=O)[C@@H]2CCCN2C1=O [Cyclo(Pro--D-Leu)] | 40 | -0.24 ± 1.06 °C | –
O=C1N[C@@H](Cc2ccccc2)C(=O)N2CCC[C@@H]12 [Cyclo(Pro--Phe)] | 20 | -0.13 ± 0.55 °C | ability to block development of physical dependence on morphine [2]: showed significant activity
CC(C)C[C@H](NC(=O)[C@@H]1CCCN1C(=O)CNC(=O)OCc1ccccc1)C(=O)NCC(=O)O [Z-Gly--Pro--Leu--Gly--COOH] (Cbz-GPLG-OH) | 22 | -0.07 ± 0.72 °C | –
CC(C)C[C@H](NC(=O)OCc1ccccc1)C(=O)NCC(N)=O [Z-Leu--Gly--NH2] (Cbz-Leu-Gly-NH2) | 70 | -0.75 ± 0.72 °C | –
CC(C)C[C@H](NC(=O)[C@@H]1CCCN1C(=O)OCc1ccccc1)C(=O)NCC(=O)O [Z-Pro--Leu--Gly--COOH] (Cbz-Pro-Leu-Gly-OH) | 100 | -1.20 ± 0.39 °C | –
CC(C)C[C@H](NC(=O)[C@@H]1CCCN1C(=O)OCc1ccccc1)C(N)=O [Z-Pro--Leu--NH2] (Cbz-Pro-Leu-NH2) | 100 | -0.95 ± 0.21 °C | –
CC(C)C[C@H](NC(=O)[C@@H]1CCC(=O)N1)C(=O)NCC(N)=O [[Glu--Leu--Gly--NH2] ([pGlu]-Leu-Gly-NH2) | 44 | -0.27 ± 0.72 °C | –
CC[C@H](C)[C@@H]1NC(=O)[C@H](Cc2ccc(O)cc2)NC(=O)[C@@H](N)CSSC[C@@H](C(=O)N2CCC[C@H]2C(=O)N[C@@H](CC(C)C)C(=O)NCC(N)=O)NC(=O)[C@H](CC(N)=O)NC(=O)[C@H](CCC(N)=O)NC1=O [oxytocin] | – | – | relative potency in facilitating development of physical dependence on and tolerance to morphine [1]: more effective than 8-arginine vasopressin
Cbz-Ala-Pro | 100 | -1.20 ± 0.21 °C | –
Cbz-Pro-Ala | 63 | -0.74 ± 0.94 °C | –
Cbz-Pro-Gln | 0 | +0.08 ± 0.33 °C | –
Cbz-Pro-Glu | 45 | -0.63 ± 0.88 °C | –
Cbz-Pro-Gly | 69 | -0.79 ± 0.78 °C | –
Cbz-Pro-Ile | 78 | -1.19 ± 0.91 °C | –
Cbz-Pro-Leu | 22 | +0.08 ± 0.93 °C | Withdrawal, % of control ([3]; dose 0.5 μg): 100%; Δt, °C. ([3]; dose 0.5 μg): -1.17 ± 0.17 °C; Withdrawal, % of control ([3]; dose 5 μg): 0%; Δt, °C. ([3]; dose 5 μg): +0.33 ± 0.26 °C; Withdrawal, % of control [2]: 18%; Δt, °C. [2]: +0.08 ± 0.93 °C; lowest dose still effective in blocking physical dependence on morphine [2]: 5 μg per mouse; ability to block development of physical dependence on morphine [2]: exhibited activity
Cbz-Pro-Met | 0 | +0.17 ± 0.23 °C | –
Cbz-Pro-Phe | 89 | -1.03 ± 0.55 °C | Withdrawal, % of control ([3]; dose 0.05 μg): 100%; Δt, °C. ([3]; dose 0.05 μg): -1.60 ± 0.69 °C; Withdrawal, % of control ([3]; dose 0.5 μg): 100%; Δt, °C. ([3]; dose 0.5 μg): -0.69 ± 0.22 °C; Withdrawal, % of control ([3]; dose 5 μg): 100%; Δt, °C. ([3]; dose 5 μg): -0.69 ± 0.24 °C; Withdrawal, % of control [2]: 99%; Δt, °C. [2]: -1.03 ± 0.55 °C
Cbz-Pro-Ser | 39 | -0.29 ± 0.73 °C | –
Cbz-Pro-Tyr | 0 | +0.13 ± 0.31 °C | –
Cbz-Pro-Val | 63 | -0.44 ± 0.48 °C | –
Cbz-[dP]-Leu | 14 | +0.17 ± 0.71 °C | ability to block development of physical dependence on morphine [2]: exhibited activity
Z-D-Pro--D-Leu | 0 | +0.10 ± 0.56 °C | ability to block development of physical dependence on morphine [2]: exhibited activity
Z-Pro--D-Ala--DCHA | 50 | -0.55 ± 0.90 °C | –
Z-Pro--Leu--Gly--N(CH3)2 | 100 | -0.47 ± 0.15 °C | –
Z-Pro--ΔPhe | 22 | -0.36 ± 0.58 °C | –
